{
  "source": "paper PMC3627194",
  "about": "“Xentry, a new class of cell-penetrating peptide uniquely equipped for delivery of drugs” (Scientific Reports, 2013)",
  "key": {"[1]": {"assay_type": "in vitro ADME", "settings": "FITC-labelled peptide incubated in serum 0, 1 and 4 h, then incubated with HepG2 cells; read-out cell uptake by fluorescence microscopy", "procedure": "(§1) Supplementary Figure 3. The D-isomeric form of Xentry aa 16-22 is cell permeable, and is stable in serum for at least 4 h.\n(§2) (a) FITC-labelled D-isomeric Xentry was incubated with HepG2 cells at concentrations of […] for 3 h.\n(§3) Uptake was recorded by fluorescence microscopy. Cell nuclei were stained with DAPI. (b) FITC-labelled L-isomeric and D-isomeric forms of Xentry were incubated in serum for 0, 1, and 4 h before incubation with HepG2 cells. Cell nuclei were stained with DAPI. Scale bar, 50 μm. […]"}, "C32 (melanoma)": {"test_system": "C32 (melanoma)", "assay": "Cell permeability of Xentry, C32 cell line", "assay_type": "cell-based", "settings": "data not shown"}, "Cos (kidney)": {"test_system": "Cos (kidney)", "assay": "Cell permeability of Xentry, Cos cell line", "assay_type": "cell-based", "settings": "data not shown"}, "[2]": {"test_system": "Mn++-activated adherent TK-1 T cells bound to MAdCAM-1-coated plates", "assay_type": "cell-based, mouse", "settings": "Mn++-activated TK-1 cells bound via α4β7 to plates coated with 1 µg/ml MAdCAM-1, FITC-labelled Xentry 3 h", "procedure": "(§4) K562 cells TK-1 cells Activated TK-1 cells\n(§5) Supplementary Figure 1. […] FITC- […]\n(§6) labelled Xentry (LCLRPVG; aa 16-22) was incubated with non-adherent K562 erythroleukemia cells and mouse TK-1 T cells and with Mn++-activated TK-1 cells attached to MAdCAM-1-coated plates. Cell uptake was recorded by fluorescence microscopy. Cell nuclei were stained blue with DAPI. Plates were coated with 1 µg/ml of MAdCAM-1 overnight and activated TK-1 cells were allowed to bind to the plates for 45 mins before incubation with FITC-labelled Xentry for 3 h. Scale bar represents […]"}, "HepG2 cells [3]": {"test_system": "HepG2 cells", "assay": "Assay to test for cell permeability of peptides", "assay_type": "cell-based", "settings": "confocal microscopy", "procedure": "Figure 1 Cell-permeability of X-protein peptides. (a) X-protein peptides aa 1–20 and 16–35 are cell-permeable. Four FITC-labelled peptides encompassing aa 1–20, 16–35, 21–40 and 34–53 from the N-terminal region of the X-protein were incubated at 10 μM with HepG2 cells and their uptake by the cells recorded by confocal microscopy. Cell nuclei were stained blue with DAPI. (b) The sequence of the first 35 N-terminal residues of the HBV X-protein are shown with the sequence of Xentry (LCLRPVG; residues 16–22) highlighted in red. Short FITC-labelled peptides (10 μM) aa 16–26, 16–24 and 16–22 (Xentry) derived from peptide aa 16–35 also permeate HepG2 cells (upper panel). […] Cell nuclei were stained blue with DAPI. […] Cell nuclei were stained blue with DAPI. Scale bar, 50 μm.\n(§7) HepG2 cells (ATCC, Manassas, VA) were seeded into 8-well chamber slides at 1 × 10^5 cells per well in MEM media (Gibco, Life Technologies New Zealand Ltd) containing 10% FCS and PSG. […] L-isomeric peptides were diluted in 500 μl of MEM media without FCS, whereas D-isomeric peptides were diluted in the same media containing FCS, and each added to cells at a final concentration of 10 μM, or as indicated. The cells were incubated for 3 h at 37°C in a 5% CO2 atmosphere, washed with PBS, fixed with 4% formaldehyde for 30 min, and washed thrice with PBS. A drop of Prolong Gold anti-fade reagent with DAPI (Invitrogen, Life Technologies New Zealand Ltd) was added, and the cells mounted and examined with a Nikon E600 fluorescence microscope or a Leica TCS-SP2 confocal microscope.\nas §1, §2, §3"}, "[4]": {"test_system": "Rin-m5F (pancreatic β-cell)", "assay": "Cell permeability of Xentry, Rin-m5F cell line", "assay_type": "cell-based", "settings": "data not shown"}, "DU145 (prostate)": {"test_system": "DU145 (prostate)", "assay": "Cell permeability of Xentry, DU145 cell line", "assay_type": "cell-based", "settings": "data not shown"}, "[5]": {"assay": "Acute toxicity after intravenous injection", "assay_type": "in vivo", "settings": "very high concentrations, single injection into the circulation"}, "BT474 (breast)": {"test_system": "BT474 (breast)", "assay": "Cell permeability of Xentry, BT474 cell line", "assay_type": "cell-based", "settings": "data not shown"}, "H441 (lung)": {"test_system": "H441 (lung)", "assay": "Cell permeability of Xentry, H441 cell line", "assay_type": "cell-based", "settings": "data not shown"}, "erythrocytes": {"test_system": "erythrocytes", "assay": "Uptake of Xentry by erythrocytes", "assay_type": "cell-based, human", "settings": "FITC-labelled Xentry 10 μM"}, "mouse TK-1 T cells": {"test_system": "mouse TK-1 T cells", "assay_type": "cell-based", "settings": "non-adherent mouse TK-1 T cells, FITC-labelled Xentry (LCLRPVG), fluorescence microscopy", "procedure": "as §4, §5, §6"}, "[6]": {"test_system": "K562 erythroleukemia cells", "assay_type": "cell-based", "settings": "non-adherent K562 erythroleukemia cells, FITC-labelled Xentry (LCLRPVG), fluorescence microscopy", "procedure": "as §4, §5, §6"}, "[7]": {"test_system": "human peripheral blood lymphocytes", "assay": "Uptake of Xentry by non-adherent blood lymphocytes", "assay_type": "cell-based", "settings": "FITC-labelled Xentry 10 μM"}, "[8]": {"test_system": "peripheral blood monocytes attached to plastic", "assay": "Uptake of Xentry by adherent blood monocytes", "assay_type": "cell-based, human", "settings": "FITC-labelled Xentry 10 μM"}, "HepG2 cells [9]": {"test_system": "HepG2 cells", "assay_type": "cell-based", "procedure": "as §7\nUntreated 37°C 4°C deoxyglucose Heparin Chlorpromazine\nSupplementary Figure 2. Cellular requirements for internalization of Xentry by HepG2 cells. (a) Incubation of FITC-labelled Xentry with HepG2 cells for 3 h at 4°C, or in the presence of 10 mM sodium azide and 6 mM 2-deoxy-D-glucose, 2 µg/ml heparin, or 10 µg/ml of chlorpromazine, as indicated, inhibited peptide uptake. Cell nuclei were stained blue with DAPI. Scale bar, 50 μm. […]"}},
  "data": [
    {"substance": "LCLRPVG [Xentry, 7 amino acid residue peptide LCLRPVG (residues 16–22) of the HBV X-protein; FITC-labelled in uptake tests]", "values": [
      {"measurement": "Time to inactivation in serum", "setting": "[1]", "result": "≤ 1", "unit": "h"},
      {"measurement": "Cell permeability", "setting": "C32 (melanoma)", "result": "capable of permeating"},
      {"measurement": "Cell permeability", "setting": "Cos (kidney)", "result": "capable of permeating"},
      {"measurement": "Cell uptake", "setting": "[2]", "result": "taken up"},
      {"measurement": "Cell permeability (uptake by HepG2 cells)", "setting": "HepG2 cells [3]; FITC-labelled L-isomeric peptide 10 μM, MEM without FCS, 3 h, 37°C, cells fixed", "result": "cell-permeable"},
      {"measurement": "Subcellular localisation after uptake", "setting": "HepG2 cells [3]; FITC-labelled peptide 10 μM, HepG2 cells, DAPI", "result": "taken up into the cytoplasm and nucleus"},
      {"measurement": "Cell permeability", "setting": "[4]", "result": "capable of permeating"},
      {"measurement": "Cell permeability", "setting": "DU145 (prostate)", "result": "capable of permeating"},
      {"measurement": "Acute toxicity", "setting": "[5]", "result": "no signs of acute toxicity"},
      {"measurement": "Cell permeability", "setting": "BT474 (breast)", "result": "capable of permeating"},
      {"measurement": "Cell permeability", "setting": "H441 (lung)", "result": "capable of permeating"},
      {"measurement": "Cell permeability", "setting": "erythrocytes", "result": "incapable of permeating"},
      {"measurement": "Cell permeability", "setting": "mouse TK-1 T cells", "result": "incapable of permeating"},
      {"measurement": "Cell permeability", "setting": "[6]", "result": "incapable of permeating"},
      {"measurement": "Cell permeability", "setting": "[7]", "result": "incapable of permeating"},
      {"measurement": "Cell uptake", "setting": "[8]", "result": "taken up"},
      {"measurement": "Internalization by HepG2 cells at 4°C", "setting": "HepG2 cells [9]; FITC-labelled Xentry, 3 h, 4°C", "result": "not at 4 °C"},
      {"measurement": "Internalization by HepG2 cells at 37°C", "setting": "HepG2 cells [9]; FITC-labelled Xentry, 3 h, 37°C", "result": "internalized"},
      {"measurement": "Uptake in the presence of heparin", "setting": "HepG2 cells [9]; HepG2, 2 µg/ml heparin, 3 h", "result": "blocked"},
      {"measurement": "Uptake in the presence of chlorpromazine", "setting": "HepG2 cells [9]; HepG2, 10 µg/ml chlorpromazine (clathrin pathway inhibitor), 3 h", "result": "blocked"},
      {"measurement": "Uptake after pretreatment with azide and deoxyglucose", "setting": "HepG2 cells [9]; HepG2, 10 mM sodium azide and 6 mM 2-deoxy-D-glucose, 3 h", "result": "blocked"},
      {"measurement": "Effect of cytochalasin D on uptake", "setting": "HepG2 cells [9]; HepG2, data not shown", "result": "without effect"},
      {"measurement": "Effect of filipin on uptake", "setting": "HepG2 cells [9]; HepG2, data not shown", "result": "without effect"}
    ]}
  ]
}
